molecular target: T1, human recombinant P2X7 receptor (Homo sapiens, UniProt Q99572); assay: YO-PRO assay (YO-PRO-1 uptake) in HEK cells stably expressing P2X7; assay type: cell-based; conditions: HEK-293 cells expressing human recombinant P2X7 receptor; ATP 250 μM, 90 minutes; YO-PRO-1 fluorescence (FLIPR tetra); read-out: IC50 (antagonistic activity with respect to the P2X7 receptor)
T1 construct: expressed in transfected cells
T1 sequence (Q99572 1-595): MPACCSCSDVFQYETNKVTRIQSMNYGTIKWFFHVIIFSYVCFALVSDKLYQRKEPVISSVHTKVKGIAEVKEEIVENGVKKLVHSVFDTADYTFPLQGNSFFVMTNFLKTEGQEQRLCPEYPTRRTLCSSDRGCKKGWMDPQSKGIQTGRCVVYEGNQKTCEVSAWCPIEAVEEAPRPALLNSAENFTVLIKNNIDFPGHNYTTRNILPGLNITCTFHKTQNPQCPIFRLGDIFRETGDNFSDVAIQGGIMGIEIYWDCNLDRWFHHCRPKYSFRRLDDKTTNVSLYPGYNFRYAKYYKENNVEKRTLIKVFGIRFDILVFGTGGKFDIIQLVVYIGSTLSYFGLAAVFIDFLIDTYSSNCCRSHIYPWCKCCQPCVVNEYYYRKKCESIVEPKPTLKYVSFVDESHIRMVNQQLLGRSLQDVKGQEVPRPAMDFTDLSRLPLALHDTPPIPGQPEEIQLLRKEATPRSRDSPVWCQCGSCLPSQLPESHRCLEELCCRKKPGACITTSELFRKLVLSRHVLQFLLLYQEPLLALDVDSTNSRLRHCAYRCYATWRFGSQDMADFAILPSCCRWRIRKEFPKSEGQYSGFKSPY
Method in brief: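 Antagonist serially diluted (duplicates) on P2X7-expressing HEK cells in buffer with 0.5 μM YO-PRO-1; dye uptake followed on FLIPR Tetra over four time points. IC50 from maximum fluorescence intensity versus compound concentration.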

Compared with C[C@@H](NC(=O)c1cc(N(C)c2ccnc(Cl)n2)ccc1Cl)C1CCCCC1 [Example 41, 2-Chloro-5-[(2-chloro-pyrimidin-4-yl)-methyl-amino]-N—((R)-1-cyclohexyl-ethyl)-benzamide], C[C@@H](NC(=O)c1cc(N(C)c2cc[nH]c(=O)n2)ccc1Cl)C1CCCCC1 [Example 42, 2-Chloro-N—((R)-1-cyclohexyl-ethyl)-5-[methyl-(2-oxo-1,2-dihydro-pyrimidin-4-yl)-amino]-benzamide] is 10-fold lower in IC50: 384 nM for the first, 38 nM for the second.

CSc1ccnc(N(C)c2ccc(Cl)c(C(=O)NCC3(O)CCCCC3)c2)n1 [Example 73, 2-Chloro-N-(1-hydroxy-cyclohexylmethyl)-5-[methyl-(4-methylsulfanyl-pyrimidin-2-yl)-amino]-benzamide] and CN(c1ccc(Cl)c(C(=O)NCC2(O)CCCCC2)c1)c1ncccn1 [Example 70, 2-Chloro-N-(1-hydroxy-cyclohexylmethyl)-5-(methyl-pyrimidin-2-yl-amino)-benzamide] are within 1.5-fold of each other in IC50: 322 nM for the first, 373 nM for the second.

Compared with CN(c1ccc(Cl)c(C(=O)NCC2(O)CCC(F)(F)CC2)c1)c1ccnc(=O)[nH]1 [Example 58, 2-Chloro-N-(4,4-difluoro-1-hydroxy-cyclohexylmethyl)-5-[methyl-(2-oxo-2,3-dihydro-pyrimidin-4-yl)-amino]-benzamide], O=C(NCC1(O)CCC(F)(F)CC1)c1cc(Oc2cc[nH]c(=O)n2)ccc1Cl [Example 118, 2-Chloro-N-(4,4-difluoro-1-hydroxy-cyclohexylmethyl)-5-(2-oxo-1,2-dihydro-pyrimidin-4-yloxy)-benzamide] is 3.6-fold lower in IC50: 51 nM for the first, 14 nM for the second. The second is the more potent here.

Going from COc1nccc(S(=O)(=O)c2ccc(Cl)c(C(=O)NCC3(O)CCCCC3)c2)n1 [Example 141, 2-Chloro-N-(1-hydroxy-cyclohexylmethyl)-5-(2-methoxy-pyrimidine-4-sulfonyl)-benzamide] to COc1nccc(N(C)c2ccc(Cl)c(C(=O)NCC3(O)CCCCC3)c2)n1 [Example 13, 2-Chloro-N-(1-hydroxy-cyclohexylmethyl)-5-[(2-methoxy-pyrimidin-4-yl)-methyl-amino]-benzamide], the IC50 falls from 3890 nM to 200 nM (19-fold).

Compared with Cn1nccc1Nc1ccc(Cl)c(C(=O)NCC2(O)CCCCC2)c1 [Example 100, 2-Chloro-N-(1-hydroxy-cyclohexylmethyl)-5-(2-methyl-2H-pyrazol-3-ylamino)-benzamide], Cn1c(Nc2ccc(Cl)c(C(=O)NCC3(O)CCCCC3)c2)cccc1=O [Example 96, 2-Chloro-N-(1-hydroxy-cyclohexylmethyl)-5-(1-methyl-6-oxo-1,6-dihydro-pyridin-2-ylamino)-benzamide] is 1.8-fold lower in IC50: 217 nM for the first, 123 nM for the second.

O=C(NCC1(O)CCCCC1)c1cc([S+]([O-])c2ccnc(Cl)n2)ccc1Cl (racemic) [Example 136, rac-2-Chloro-5-(2-chloro-pyrimidine-4-sulfinyl)-N-(1-hydroxy-cyclohexylmethyl)-benzamide] and O=C(NCC1(O)CCCCC1)c1cc(Nc2ccnc(Cl)n2)ccc1Cl [Example 10, 2-Chloro-5-(2-chloro-pyrimidin-4-ylamino)-N-(1-hydroxy-cyclohexylmethyl)-benzamide] are within 1.5-fold of each other in IC50: 640 nM for the first, 890 nM for the second.

O=C(NCC1(O)CCCCC1)c1cc(Nc2ccc(F)cc2F)ccc1Cl [Example 6, 2-Chloro-5-(2,4-difluoro-phenylamino)-N-(1-hydroxy-cyclohexylmethyl)-benzamide] and O=C(NCC1(O)CCCCC1)c1cc(Nc2ccccc2F)ccc1Cl [Example 4, 2-Chloro-5-(2-fluoro-phenylamino)-N-(1-hydroxy-cyclohexylmethyl)-benzamide] are within 1.5-fold of each other in IC50: 154 nM for the first, 103 nM for the second.

First: O=C(NCC1(O)CCCCC1)c1cc(C(F)(F)c2cc[nH]c(=O)n2)ccc1Cl [Example 151, 2-Chloro-5-[difluoro-(2-oxo-1,2-dihydro-pyrimidin-4-yl)-methyl]-N-(1-hydroxy-cyclohexylmethyl)-benzamide]
Second: CC(O)(c1ccc(Cl)c(C(=O)NCC2(O)CCCCC2)c1)c1cc[nH]c(=O)n1 (racemic) [Example 156, rac-2-Chloro-N-(1-hydroxy-cyclohexylmethyl)-5-[1-hydroxy-1-(2-oxo-1,2-dihydro-pyrimidin-4-yl)-ethyl]-benzamide]
The IC50 of the first is 2.2-fold higher: 31 nM for the first, 14 nM for the second. The second is the more potent here.

Compared with O=C(NCC1(O)CCCCC1)c1cc(Oc2cccnn2)ccc1Cl [Example 130, 2-Chloro-N-(1-hydroxy-cyclohexylmethyl)-5-(pyridazin-3-yloxy)-benzamide], O=C(NCC1(O)CCCCC1)c1cc(Nc2ccncn2)ccc1Cl [Example 8, 2-Chloro-N-(1-hydroxy-cyclohexylmethyl)-5-(pyrimidin-4-ylamino)-benzamide] is 6.9-fold higher in IC50: 67 nM for the first, 459 nM for the second.

First: COC1(CNC(=O)c2cc(N(C)c3ccnc(=O)[nH]3)ccc2Cl)CCCCC1 [Example 52, 2-Chloro-N-(1-methoxy-cyclohexylmethyl)-5-[methyl-(2-oxo-2,3-dihydro-pyrimidin-4-yl)-amino]-benzamide]
Second: CN(c1ccc(Cl)c(C(=O)NCC2(O)CCCCC2)c1)c1nccc(=O)[nH]1 [Example 75, 2-Chloro-N-(1-hydroxy-cyclohexylmethyl)-5-[methyl-(6-oxo-1,6-dihydro-pyrimidin-2-yl)-amino]-benzamide]
The IC50 of the first is 6-fold lower: 170 nM for the first, 1020 nM for the second.

Compared with O=C(NCC1(O)CCCCC1)c1cc(N(CCOc2ccccc2)c2ccnc(Cl)n2)ccc1Cl [Example 38, 2-Chloro-5-[(2-chloro-pyrimidin-4-yl)-(2-phenoxy-ethyl)-amino]-N-(1-hydroxy-cyclohexylmethyl)-benzamide], CCCN(c1ccc(Cl)c(C(=O)NCC2(O)CCCCC2)c1)c1ccnc(Cl)n1 [Example 22, 2-Chloro-5-[(2-chloro-pyrimidin-4-yl)-propyl-amino]-N-(1-hydroxy-cyclohexylmethyl)-benzamide] is 2.9-fold lower in IC50: 764 nM for the first, 267 nM for the second.

CN(c1ccc(Cl)c(C(=O)NCC2(CO)CCCCC2)c1)c1ccnc(Cl)n1 [Example 55, 2-Chloro-5-[(2-chloro-pyrimidin-4-yl)-methyl-amino]-N-(1-hydroxymethyl-cyclohexylmethyl)-benzamide] and Cc1ccc(N(C)c2ccnc(Cl)n2)cc1C(=O)NCC1(O)CCCCC1 [Example 153, 5-[(2-Chloro-pyrimidin-4-yl)-methyl-amino]-N-(1-hydroxy-cyclohexylmethyl)-2-methyl-benzamide] are within 1.5-fold of each other in IC50: 482 nM for the first, 702 nM for the second.

CN(c1ccc(Cl)c(C(=O)NCC2(O)CCCCC2)c1)c1cncc(=O)[nH]1 [Example 85, 2-Chloro-N-(1-hydroxy-cyclohexylmethyl)-5-[methyl-(6-oxo-1,6-dihydro-pyrazin-2-yl)-amino]-benzamide] and CN(c1ccc(Cl)c(C(=O)NCC2(O)CCCCC2)c1)c1cncc(Cl)n1 [Example 81, 2-Chloro-5-[(6-chloro-pyrazin-2-yl)-methyl-amino]-N-(1-hydroxy-cyclohexylmethyl)-benzamide] are within 1.5-fold of each other in IC50: 177 nM for the first, 245 nM for the second.

First: O=C(NCC1(O)CCCCC1)c1cc(N(Cc2ccccc2)c2cc[nH]c(=O)n2)ccc1Cl [Example 30, 5-[Benzyl-(2-oxo-1,2-dihydro-pyrimidin-4-yl)-amino]-2-chloro-N-(1-hydroxy-cyclohexylmethyl)-benzamide]
Second: CC(C)N(c1ccc(Cl)c(C(=O)NCC2(O)CCCCC2)c1)c1cc[nH]c(=O)n1 [Example 25, 2-Chloro-N-(1-hydroxy-cyclohexylmethyl)-5-[isopropyl-(2-oxo-1,2-dihydro-pyrimidin-4-yl)-amino]-benzamide]
The IC50 of the first is 1.7-fold higher: 181 nM for the first, 109 nM for the second.

Going from O=C(NCC1(O)CCCCC1)c1cc(Sc2ccccn2)ccc1Cl [Example 132, 2-Chloro-N-(1-hydroxy-cyclohexylmethyl)-5-(pyridin-2-ylsulfanyl)-benzamide] to O=C(NCC1(O)CCCCC1)c1cc(Cc2ccccn2)ccc1Cl [Example 145, 2-Chloro-N-(1-hydroxy-cyclohexylmethyl)-5-pyridin-2-ylmethyl-benzamide], the IC50 falls from 46 nM to 21 nM (2.2-fold). The second is the more potent here.

First: COCCN(c1cncnc1)c1ccc(Cl)c(C(=O)NCC2(O)CCCCC2)c1 [Example 77, 2-Chloro-N-(1-hydroxy-cyclohexylmethyl)-5-[(2-methoxy-ethyl)-pyrimidin-5-yl-amino]-benzamide]
Second: CN(c1ccc(Cl)c(C(=O)NCC2(O)CCCCC2)c1)c1ccncn1 [Example 9, 2-Chloro-N-(1-hydroxy-cyclohexylmethyl)-5-(methyl-pyrimidin-4-yl-amino)-benzamide]
The IC50 of the first is 3-fold higher: 1460 nM for the first, 481 nM for the second. The second is the more potent here.

Compared with CSc1nccc(Nc2ccc(Cl)c(C(=O)NCC3(O)CCCCCC3)c2)n1 [Example 61, 2-Chloro-N-(1-hydroxy-cycloheptylmethyl)-5-(2-methylsulfanyl-pyrimidin-4-ylamino)-benzamide], CC(C)CN(c1ccc(Cl)c(C(=O)NCC2(O)CCCCC2)c1)c1ccnc(Cl)n1 [Example 26, 2-Chloro-5-[(2-chloro-pyrimidin-4-yl)-isobutyl-amino]-N-(1-hydroxy-cyclohexylmethyl)-benzamide] is 2.1-fold lower in IC50: 681 nM for the first, 317 nM for the second. The second is the more potent here.

With CN(c1ccc(Cl)c(C(=O)NCC2(O)CCCCC2)c1)c1cc(Cl)nc(Cl)n1 [Example 62, 2-Chloro-5-[(2,6-dichloro-pyrimidin-4-yl)-methyl-amino]-N-(1-hydroxy-cyclohexylmethyl)-benzamide] the IC50 was 416 nM.

Source: patent publication US20140073651A1, “BENZAMIDE DERIVATIVES AS P2X7 RECEPTOR ANTAGONISTS” (Actelion Pharmaceuticals Ltd., priority 2011, published 2014)
